Patent US20160031868A1, “BENZIMIDAZOLONE DERIVATIVES AS BROMODOMAIN INHIBITORS” (GILEAD SCIENCES, INC., priority 2013, published 2016)
Where two headings read alike, the source gives them in different places.

Columns and labels:
[1] = system: c-Myc produced in MM1S cells; experiment: c-Myc down regulation assay (MSD ELISA) in MM1S cells; type: cell-based; conditions: Homo sapiens, MM1.S, 24 hrs incubation, geometric mean, read-out: cMYC EC50
Method: An enzyme linked immunosorbent assay using the Meso Scale Diagnostic (MSD) technology was used to detect levels of c-Myc produced in MM1S cells (ATCC). MM1S cells were cultured in RPMI-1640 media (Corning), supplemented with 10% FBS (Hyclone), 1% penicillin-streptomycin (Cellgro), 2-mercaptoethanol (Gibco) and seeded onto 384-tissue culture treated filter binding plates (Millipore) at a density of 40K cells/well containing titrations of small molecule inhibitors or DMSO (0.4%) in a volume of 100 μl of media. After an incubation time of 24 hrs, cells were lysed (1× lysis buffer (Thermo) supplemented with protease and phosphatase inhibitor cocktail (Thermo)) and the plates centrifuged (1000 rpm, 1 min) to capture c-Myc on MSD plates coated with a monoclonal c-Myc antibody (Origene). Assay wells were washed (3× Invitrogen wash buffer) and probed with a polyclonal c-Myc antibody (Abcam) and MSD detection antibody solution in order to detect levels of c-Myc on the MSD platform. c-Myc capture was reported in pg/ml based on a standard curve using recombinant c-Myc protein (Prosci). EC50 values were calculated from the fit of the dose-response curves to a four-parameter equation. All EC50 values represent geometric mean values of a minimum of four determinations. These assays generally produced results within 3-fold of the reported mean.

[2] = MT-4 proliferation assay in 384-well format (Cell Titer Glo); type: cell-based, human; conditions: human, MT-4 cells, Table 2, 50% decrease in luminescence signal, read-out: CC50 MT4 384
Method: Compounds were tested in a standardized high-throughput 384-well assay format. Each compound was serially diluted 3-fold in 100% DMSO in polypropylene 384-well plates using a Biomek FX Workstation, and 0.4 μL compound added to an assay plate containing 40 μL RPMI media. Compounds were arranged in a horizontal pattern, with 10 concentrations per compound, and 8 compounds added per plate. Due to low DMSO tolerability, the final DMSO concentration never exceeded 0.5% (v/v). Each assay plate contained 10 μM Puromycin and 0.5% DMSO in RPMI-1640 as positive and negative controls respectively. MT-4 cells (HTLV-1 transformed, human T lymphoblastoid cells, NIH Aids Reagent program) were added in volumes of 35 μL per well and 2,000 cells per well using a Biotek uFlow Workstation (Biotek, Winooski, Vt.), and the plates subsequently incubated for 5 days at 37° C. in an incubator set at 5% CO2 and 90% humidity.
After 5 days, 22 μL Cell Titer Glo (Promega) was added to the assay plates with a Biotek uFlow Workstation. Plates were subsequently placed on a Perkin Elmer Envision Plate Reader for 5 minutes before the luminescence signal was read. CC50 values were calculated from the compound concentration that caused a 50% decrease in luminescence signal, a measure of toxicity, and calculated by non-linear regression using Pipeline Pilot software (Accelrys, San Diego, Calif.).

[3] = molecular target: T1, BRD4-1 (Homo sapiens, UniProt O60885); experiment: BRD4-1 Ligand KI assay (TR-FRET displacement of Cy5 labeled probe); type: binding
T1 construct: made in house; host or cells: Escherichia coli
Method: Binding of the two tandem bromodomains, BRD4-I and BRD4-2, to a Cy5 labeled probe/ligand (Compound 201-A) were measured using a homogeneous time resolved fluorescence resonance energy transfer (TR-FRET) assay.
(§1) The labeled ligand specifically binds BRD4-1 and BRD4-2 and can be displaced by a small molecule inhibitor that shares a similar or overlapping binding site. BRD4-I and BRD4-2 were expressed and purified from Escherichia coli as N-terminal His6-tagged proteins. A Eu-cryptate labeled anti-His antibody (Perkin Elmer) was used to specifically bind BRD4. […] Assays were performed in 50 mM Hepes (pH 7.5), 150 mM NaCl, 0.1 mg/ml BSA, 0.01% (v/v) Brij, 0.5% (v/v) DMSO and 10 nM labeled ligand at the following concentrations for each BRD4 isoform: 2 nM BRD4-1 and 0.5 nM BRD4-2. After an assay reaction time of 60 minutes at 25° C., binding was measured with 2 nM Eu-cryptate labeled anti-His antibody. TR-FRET signal was detected on an Envision plate reader (Ex: 320 nm; Em: 615/665 nm; 100 μs delay and 200 μs read window). Data were normalized based on a positive (2 μM I-BET) and negative (DMSO) controls and IC50 values were calculated from the fit of the dose-response curves to a four-parameter equation. All IC50 values represent geometric mean values of a minimum of four determinations. The IC50 values were converted to Ki values (dissociation constant for BRD4-inhibitor complex) using the Cheng and Prusoff equation for a competitive inhibitor mode of action. These assays generally produced results within 3-fold of the reported mean.

[4] = molecular target: T2, BRD4-2 (Homo sapiens, UniProt O60885); experiment: BRD4-2 Ligand KI assay (TR-FRET displacement of Cy5 labeled probe); type: binding
T2 construct: made in house; host or cells: Escherichia coli
Method: as §1, with “BRD4-I” for “The labeled ligand specifically binds BRD4-1 and BRD4-2 and can be displaced by a small molecule inhibitor that shares a similar or overlapping binding site. BRD4-I”, “action.” for “action. These assays generally produced results within 3-fold of the reported mean.”

[5] = 10 nM labeled ligand, 2 nM BRD4-1, Ki from IC50 by Cheng and Prusoff, read-out: BRD4-1 Ligand K1
[6] = 10 nM labeled ligand, 0.5 nM BRD4-2, Ki from IC50 by Cheng and Prusoff, read-out: BRD4-2 Ligand K2

Compound	EC50 [1] [nM]	CC50 at 5 days [2] [nM]	Ki [3] [nM]	Ki [4] [nM]	Ki [3, 5] [nM]	Ki [4, 6] [nM]
Cc1noc(C)c1-c1cc(C(O)(c2ccccn2)c2ccc(Cl)cn2)c2[nH]c(=O)[nH]c2c1 (centres unmarked) [Example 54, 4-((5-chloropyridin-2-yl)(hydroxy)(pyridin-2-yl)methyl)-6-(3,5-dimethylisoxazol-4-yl)-1H-benzo[d]imidazol-2(3H)-one]	111	27.1	22.7	14.1	–	–
Cc1noc(C)c1-c1cc(C(O)(c2ccc(Cl)cn2)c2ccc(Cl)cn2)c2[nH]c(=O)[nH]c2c1 [Example 55, 4-(bis(5-chloropyridin-2-yl)(hydroxy)methyl)-6-(3,5-dimethylisoxazol-4-yl)-1H-benzo[d]imidazol-2(3H)-one]	141	41	–	–	14.5	18.2
Cc1noc(C)c1-c1cc(C(O)(c2cnccn2)c2c(F)cc(F)cc2F)c2[nH]c(=O)[nH]c2c1 (centres unmarked) [Example 56, 6-(3,5-dimethylisoxazol-4-yl)-4-(hydroxy(pyrazin-2-yl)(2,4,6-trifluorophenyl)methyl)-1H-benzo[d]imidazol-2(3H)-one]	40.9	24.8	–	–	6	3.6
Cc1noc(C)c1-c1cc(-c2cccnc2C2CC2)c2[nH]c(=O)[nH]c2c1 [Example 73, 4-(2-cyclopropylpyridin-3-yl)-6-(3,5-dimethylisoxazol-4-yl)-1H-benzo[d]imidazol-2(3H)-one]	154	61	–	–	34.2	24
Cc1noc(C)c1-c1cc(C(O)(c2ccccn2)c2ccccn2)c2[nH]c(=O)[nH]c2c1 [Example 133, 6-(3,5-dimethylisoxazol-4-yl)-4-(hydroxydi(pyridin-2-yl)methyl)-1H-benzo[d]imidazol-2(3H)-one]	44.3	25.5	40.3	15.8	–	–
Cc1cccc(C(O)(c2cccc(C)n2)c2cc(-c3c(C)noc3C)cc3[nH]c(=O)[nH]c23)n1 [Example 134]	74.4	19.1	–	–	69.9	5.3
Cc1noc(C)c1-c1cc(C(O)(CCC(F)(F)F)c2ccccn2)c2[nH]c(=O)[nH]c2c1 (centres unmarked) [Example 140, 6-(3,5-dimethylisoxazol-4-yl)-4-(4,4,4-trifluoro-1-hydroxy-1-(pyridin-2-yl)butyl)-1H-benzo[d]imidazol-2(3H)-one]	217	78.3	–	–	35.2	43.8
Cc1noc(C)c1-c1cc(C(O)(CC(C)(C)C)c2ccccn2)c2[nH]c(=O)[nH]c2c1 (centres unmarked) [Example 143, 6-(3,5-dimethylisoxazol-4-yl)-4-(1-hydroxy-3,3-dimethyl-1-(pyridin-2-yl)butyl)-1H-benzo[d]imidazol-2(3H)-one]	118	20.4	–	–	29.3	8
Cc1cccc(C(O)(c2ccccn2)c2cc(-c3c(C)noc3C)cc3[nH]c(=O)[nH]c23)n1 (centres unmarked) [Example 147, 6-(3,5-dimethylisoxazol-4-yl)-4-(hydroxy(6-methylpyridin-2-yl)(pyridin-2-yl)methyl)-1H-benzo[d]imidazol-2(3H)-one]	107	56.5	–	–	81.6	16
Cc1noc(C)c1-c1cc(C(O)(c2ccccc2)c2ccccn2)c2[nH]c(=O)[nH]c2c1 (centres unmarked) [Example 149, 6-(3,5-dimethylisoxazol-4-yl)-4-(hydroxy(phenyl)(pyridin-2-yl)methyl)-H benzo[d]imidazol-2(3H)-one]	73.8	17.5	–	–	17.3	4.6
Cc1noc(C)c1-c1cc(C(O)(c2ccccn2)c2ccccn2)c2[nH]c(=O)[nH]c2c1F [Example 169]	128	41.4	–	–	62	33.5
